Here are results for eleven compounds from article PMC8541513, “Stereoselective Synthesis of the Di-Spirooxindole Analogs Based Oxindole and Cyclohexanone Moieties as Potential Anticancer Agents” (Molecules, 2021).

SMILES strings stand for the structures. Where two headings read alike, the source gives them in different places.

The test system of one data set is HeLa cancer cells. Also noted: method as in PMID 30844686. Conditions: cited from earlier work.
For data set [1], the system named is HepG2. Also noted: method as in Barakat et al. (15). Particulars: ref Barakat et al. (15); cited from earlier work.
Data set [2] deals with MCF-7 breast cancer cells. Also noted: method as in PMID 28126436, PMID 29413708. Particulars: cited from earlier work.
The test system of another data set is HCT-116. Also noted: method as in PMID 30802707. Particulars: cited from earlier work.
The test system of data set [3] is HepG2. On the set-up: method as in PMID 30802707. Particulars: cited from earlier work.
The next data set concerns PC-3. Also noted: method as in PMID 30802707. Particulars: cited from earlier work.
Data set [4] relates to K562 leukemia cancer cells. On the set-up: method as in PMID 28126436, PMID 29413708. Conditions: cited from earlier work.
The next data set concerns HeLa cancer cell line. Also noted: method as in doi:10.1016/j.molstruc.2019.03.032. Conditions: cited from earlier work.
The test system of a further data set is Human Fibroblast BJ. Briefly: MTT cytotoxicity assay against BJ human fibroblast cells. The format is cell-based. Conditions: 48 h, 1-30 µM, ± SD of three independent experiments. The method, then: (§1) Cytotoxicity against BJ human fibroblast cells and cytotoxicity against PC3, HeLa, MCF-7, and MDA-MB231 cancer cell lines were evaluated by following the procedure as described in the literature (Supplementary Materials). […]
(§2) The Biological Activity Assays Protocols
(§3) Cytotoxic activity of compounds was evaluated in 96-well flat-bottomed micro plates by using the standard MTT (3-[4, 5-dimethylthiazole-2-yl]-2, 5-diphenyl-tetrazolium bromide) colorimetric assay.
(§4) For this purpose, PC3 cells (Prostate Cancer) / BJ Human fibroblast cells / HeLa cells (Cervical Cancer) / MCF-7 and MDA-MB-231 breast cancer cell line were cultured in Dulbecco’s Modified Eagle Medium, supplemented with 5% of fetal bovine serum (FBS), 100 IU/ml of penicillin and 100 µg/ml of streptomycin in 75 cm2 flasks, and kept in 5% CO2 incubator at 37 °C. Exponentially growing cells were harvested, counted with haemocytometer and diluted with a particular medium. Cell culture with the concentration of 1x10^5 cells/ml was prepared and introduced (100 µL/well) into 96-well plates. After overnight incubation, medium was removed and 200 µL of fresh medium was added with different concentrations of compounds (1-30µM). After 48 hrs, 200 µL MTT (0.5 mg/ml) was added to each well and incubated further for 4 hrs. Subsequently, 100µL of DMSO was added to each well. The extent of MTT reduction to formazan within cells was calculated by measuring the absorbance at 570 nm, using a micro plate reader (Spectra Max plus, Molecular Devices, CA, USA). The cytotoxicity was recorded […]
(§5) (1 picture or pasted object on this page, not shown here) […]
(§6) as concentration causing 50% growth inhibition (IC50) for PC3 cells. The percent inhibition was calculated by using the following formula:
(§7) % inhibition = 100-((mean of O.D of test compound – mean of O.D of negative control)/ (mean of O.D of positive control – mean of O.D of negative control)*100).
(§8) The results (% inhibition) were processed by using Soft- Max Pro software (Molecular Device, USA).
(§9) Standard drug used in the MTT assay was doxorubicin. […]
(In general: Tetrazolium dyes change colour on reduction, which living cells bring about.)

The test system of another data set is Prostate PC3. Description: MTT anticancer assay, prostate PC3 cells. The format is cell-based. Particulars: 1-30 µM, ± SD of three independent experiments; for IC50: Homo sapiens, PC-3, 48 h. As to the method: (§10) The antiproliferative activity against four cancer cell lines, including prostate PC3, cervical HeLa, and triple-negative breast cancer (MCF-7 and MDA-MB231) was evaluated by MTT assay, while standard drug doxorubicin was used as a reference for comparison (Table 1).
as §1, §2, §3, §4, §5, §6, §7, §8, §9

For another data set, the system named is Cervical HeLa. Description: MTT anticancer assay, cervical HeLa cells. Particulars: 48 h, 1-30 µM, ± SD of three independent experiments; for IC50: Homo sapiens, HeLa. The format is cell-based. As to the method: as §10, §1, §2, §3, §4, §5, §6, §7, §8, §9
Another data set relates to Breast MCF-7. Briefly: MTT anticancer assay, breast MCF-7 cells. It counts as cell-based. Conditions: 1-30 µM, ± SD of three independent experiments; for IC50: Homo sapiens, MCF7, 48 h. On the set-up: key to IC50, Breast MCF-7: NA means that the tested compound did not show anticancer activity at 30 µM; NS: Not soluble. As to the method:
as §10, §1, §2, §3, §4, §5, §6, §7, §8, §9

For another data set, the system named is Breast MDA-MB231. Briefly: MTT anticancer assay, breast MDA-MB231 cells. It counts as cell-based. Also noted: key to IC50, Breast MDA-MB231: NA means that the tested compound did not show anticancer activity at 30 µM; NS: Not soluble. Particulars: 1-30 µM, ± SD of three independent experiments; for IC50: Homo sapiens, MDA-MB-231, 48 h. As to the method:
as §10, §1, §2, §3, §4, §5, §6, §7, §8, §9

`O=C(c1ccccn1)[C@@H]1[C@@H](c2ccccc2Cl)[C@H](c2ccccc2)N[C@@]12C(=O)Nc1ccccc12` [III]: in the data set with HeLa cancer cells, the “selectivity between HeLa cancer cells and Vero healthy cells” value is given as 3 fold.
As usually defined, the IC50 is the midpoint of a concentration-inhibition curve. On to `N.N.[Cl][Pt][Cl]` [cisplatin], for which the IC50 in the data set with HepG2 [1] is 5.5 µM.
For the compound `O=C1C(=Cc2ccc(Br)cc2)CCCC12C1CCCN1C1(C(=O)Nc3ccccc31)C2c1ccc(Br)cc1` (stereo not drawn) [VIII], the IC50 in data set [2] was 15.32 ± 0.02 µM.
As to `O=c1[nH]cc(F)c(=O)[nH]1` [Compound 5-FU, 5-fluorouracil], in data set [2], the IC50 is 78.28 ± 0.2 µM.
Take `O=C(/C=C/c1ccc(Cl)cc1Cl)[C@H]1[C@H](c2ccc(Cl)cc2Cl)[C@H]2CSCN2[C@]12C(=O)Nc1ccccc12` [V]: the “selectivity index for the cancer cells versus the normal cells” value with HCT-116 (HCT-116, HepG2, PC-3 versus normal cells) is given as > 2. Moreover, the IC50 in the data set with HCT-116, in the data set on HepG2 [3] and in the data set with PC-3 was < 4 µM each time.
For the compound `COc1ccc(C=C2CCCC3(C2=O)C(c2ccc(OC)cc2)C2CSCN2C32C(=O)Nc3ccccc32)cc1` (stereo not drawn) [VII], the IC50 in data set [4] is 13.4 ± 0.14 µM.
In the case of `O=C(c1ccc(F)cc1)[C@H]1[C@H](c2ccc(Cl)cc2Cl)C2CSCN2[C@]12C(=O)Nc1ccccc12` (stereo partly drawn) [VI], in the data set with HeLa cancer cell line, the IC50 is 11.2 µM.
On to `COc1cccc2c1C(=O)c1c(O)c3c(c(O)c1C2=O)C[C@@](O)(C(=O)CO)C[C@@H]3O[C@H]1C[C@H](N)[C@H](O)[C@H](C)O1` [Doxorubicin, reference compound], for which the IC50 in the data set with Human Fibroblast BJ was > 30 µM; with Prostate PC3, 1.9 ± 0.4 µM; with Cervical HeLa it was 0.9 ± 0.14 µM; with Breast MCF-7, 0.79 ± 0.05 µM; in the data set with Breast MDA-MB231, 0.32 ± 0.002 µM; with HeLa cancer cell line, 1.2 µM.
One may read the melting point as the temperature, or range, at which the solid turns liquid. Take `Cc1ccc2c(c1)[C@]1(C(=O)N2)N2[C@H](C[C@@H]3CCCC[C@@H]32)[C@@H](c2ccc(C(F)(F)F)cc2)[C@@]12CCC/C(=C\c1ccc(C(F)(F)F)cc1)C2=O` [Compound 4n, (1. S,1′S,3′S,4a′S,8a′S,9a′R)-5″-Methyl-3-((E)-4-(trifluoromethyl)benzylidene)-1′-(4-(trifluorom-thyl)phenyl)-4a′,5′,6′,7′,8′,8a′,9′,9a′-octahydro-1′H-dispiro[cyclohexane-1,2′-pyrrolo[1,2-a]indole-3′,3″-indoline]-2,2″-dione]: the melting point lay within 73 to 74 °C. For the same compound, in the data set on Human Fibroblast BJ, the IC50 was > 30 µM. Also, the IC50 in the data set on Prostate PC3 is > 30 µM. For the same compound, in the data set with Cervical HeLa, the “IC50, Cervical HeLa” value is “inactive” and the IC50 is > 30 µM. Moreover, the IC50 in the data set with Breast MCF-7 is > 30 µM. In the data set on Breast MDA-MB231, the half-inhibitory concentration (IC50) was > 30 µM.
Take `O=C1/C(=C/c2ccc(Br)cc2)CCC[C@@]12[C@H](c1ccc(Br)cc1)[C@H]1C[C@@H]3CCCC[C@@H]3N1[C@]21C(=O)Nc2cc(Cl)ccc21` [Compound 4f, (1. S,1′S,3′S,4a′S,8a′S,9a′R)-3-((E)-4-Bromobenzylidene)-1′-(4-bromophenyl)-6″-chloro-4a′,5′,6′,7′,8′,8a′,9′,9a′-octahydro-1′H-dispiro[cyclohexane-1,2′-pyrrolo[1,2-a]indole-3′,3″-indoline]-2,2″-dione]: the melting point was 97 to 98 °C. The IC50 in the data set on Human Fibroblast BJ is > 30 µM. For the same compound, the “IC50, Prostate PC3” value in the data set on Prostate PC3 (48 h) is “inactive”. The IC50 with Prostate PC3 is > 30 µM. For the same compound, the IC50 with Cervical HeLa is > 30 µM. In addition, the “IC50, Breast MCF-7” value with Breast MCF-7 (48 h) is on record as “NS ^c”. Moreover, in the data set on Breast MDA-MB231 (48 h), the “IC50, Breast MDA-MB231” value is “NS”.
In turn, `O=C1/C(=C/c2ccc(C(F)(F)F)cc2)CCC[C@@]12[C@H](c1ccc(C(F)(F)F)cc1)[C@H]1C[C@@H]3CCCC[C@@H]3N1[C@]21C(=O)Nc2cc(Cl)ccc21` [Compound 4m, (1. S,1′S,3′S,4a′S,8a′S,9a′R)-6″-Chloro-3-((E)-4-(trifluoromethyl)benzylidene)-1′-(4-(trifluoromethyl)phenyl)-4a′,5′,6′,7′,8′,8a′,9′,9a′-octahydro-1′H-dispiro[cyclohexane-1,2′-pyrrolo[1,2-a]indole-3′,3″-indoline]-2,2″-dione] returned a melting point of 78 to 79 °C. The IC50 in the data set with Human Fibroblast BJ was > 30 µM. Moreover, the IC50 in the data set with Prostate PC3 was > 30 µM. In the data set on Cervical HeLa, this compound came in with an IC50 of 24.6 ± 0.4 µM. Further, the IC50 with Breast MCF-7 was > 30 µM. Further, in the data set on Breast MDA-MB231, the IC50 was > 30 µM.
